Data from patent US20140286906A1, “USE OF IGF-1 IN THE MODULATION OF TREG CELL ACTIVITY AND THE TREATMENT AND PREVENTION OF AUTOIMMUNE DISORDERS OR DISEASES” (priority 2011, published 2014).

Experiments:
[1] = tested on: FOXP3 positive cells (CD25+ splenic cells); assay: Foxp3 and Ki67 flow cytometric analysis of Treg proliferation; format: cell-based, murine
Method: To determine the effect of IGF-1 in the regulatory subset in vitro (cf. FIG. 4) the number of FOXP3 positive cells is determined by flow cytometric analysis. To analyze other subsets, like the proinflammatory Th1 and Th17 subsets, a similar approach is used but the number of interferon-gamma (Th1) and IL-17 (Th17) positive cells is determined. Additionally, to evaluate the number of proliferating cells at a given moment cells are stained using the intracellular marker Ki67, which is expressed only in cycling cells. The combination of a specific lineage marker (e.g., Foxp3, IFN-g, IL-17) with Ki67 allows for the determination at a given moment of the cells belonging to a certain subset and their proliferative status.
In animal experiments, the population is isolated normally from murine spleen (but also could be isolated from other tissues, like for example but not restricted to bone marrow, adipose tissue, cord blood derived mononuclear cell, thymus, or peripheral blood) and is sorted using different markers (e.g., CD4 and CD25). This population is defined as CD4+CD25+ and includes the regulatory cells. This population is then treated in the above-mentioned medium in the presence of IGF-1. After several days of culture part of the cells are counted, fixed, permeabilized and analyzed by flow cytometry using an anti-FOXP3 antibody in combination with the same extracellular markers (CD4 and CD25). This allows for the determination of the absolute number of FOXP3 positive cells present in the culture.
To further define the proliferative effects of IGF-1, FACS-sorted CD25+ splenic cells (>98% purity) after two days in culture with recombinant IGF-1 were fixed, permeabilized and stained with antibodies against FOXP3 and Ki67. Foxp3 is a transcription factor that orchestrates the cellular and molecular programs involved in T regulatory function. Ki67 is a nuclear antigen present in proliferating cells. […] After three days of culture the number of FOXP3 positive cells was increased four-fold and the number of regulatory T cells proliferating approximately six-fold.

CD4+CD25+ splenic cells = assay: flow cytometry of activation and homing markers on CD4+CD25+ splenic cells; format: cell-based, murine; conditions: Deguelin 1 μM; Ly-294,002 and PD.98,059 10 μM (FIG. 10)
Text: The expression of certain markers on the surface of the cell is correlated with the degree of activation of the cells and also controls their trafficking and localization and consequently the compartmentalization of the immune responses. This is again measured using flow cytometric methods. For example, cells expressing high levels of CD62L preferentially migrate to secondary lymphoid tissues. However, as these cells enter the periphery (for example when they travel to affected tissues during an autoimmune process) they rapidly acquire an activated phenotype and express higher levels of CD44. Thus upregulation of CD44 is associated with a higher proliferation rate. […] The importance of this observation comes from the fact that in order to exert their suppressive properties, Tregs need to migrate to the affected tissues first. Therefore, IGF-1 not only induces activation of proliferation but also promotes their correct localization.
Finally, the inventors analyzed the ability of IGF-1 to alter the homing properties of the regulatory T cell subset. In 2003, Fisson et al. defined two distinct population of regulatory T cells in homeostatic conditions. In the steady state, some Tregs remain quiescent for long periods of time, whereas the other Treg population divides extensively and express multiple activation markers. […] This pattern of change is also consistent with a more activated phenotype. On one hand, CD44^hiCD62L^lo Treg populations, but not their CD44^loCD62L^hi counterparts, constantly incorporate BrdU, a synthetic analog of thymidine, into newly synthesized DNA in lymphoid tissues (Matsushima and Takashima, 2010). On the other hand, higher levels of CD62L have been associated with a higher capacity of Tregs to migrate to the lymph nodes, while lower levels allows them to migrate to sites of inflammation (Fisson et al., 2003; Bromley et al., 2008). Thus, T regulatory cells expressing lower levels of CD62L would have a higher inflammation-seeking capacity, which has been associated with higher suppressive potential in various inflammation models (Huehn et al., 2005). […] One, IGF-1 is able to activate a complex pathway resulting in Treg activation leading to proliferation and to selective homing and migration to the sites of inflammation. The second conclusion comes from the observation that sequential migration from blood to the target tissue and then to draining lymph nodes is required for nTreg to differentiate and execute fully their suppressive function, by inhibiting dendritic cells in the peripheral tissue and T effector cell responses in dLN and periphery (Zhang et al., 2009). Thus, IGF-1 treatment not only results in higher numbers of T regulatory cells but also in altering the trafficking of these cells to achieve a higher suppressive effect. […]

## COc1cc2c(cc1OC)[C@@H]1C(=O)c3ccc4c(c3O[C@@H]1CO2)C=CC(C)(C)O4 [Deguelin, reference compound]
[1]; inhibitor 1 μM
  effect of inhibitor on IGF-1 effect on Treg proliferation: partially blocked
CD4+CD25+ splenic cells
  sensitivity of IGF-1 induced CD62L and CD44 changes to pathway inhibitor: more sensitive

## O=c1cc(N2CCOCC2)oc2c(-c3ccccc3)cccc12 [Ly-294,002, reference compound]
[1]; inhibitor 10 μM
  effect of inhibitor on IGF-1 effect on Treg proliferation: sensitive

## COc1cccc(-c2cc(=O)c3ccccc3o2)c1N [PD.98,059, reference compound]
[1]; inhibitor 10 μM
  effect of inhibitor on IGF-1 effect on Treg proliferation: partially blocked
